Several values for one entry are separate records, joined by “and”; a condition that tells them apart may be missing. Equal entries are not always repeated.
Columns and labels:
activated Akt = assay: Western immunoblot for activated (phospho-Ser473) Akt in muscle cells; assay type: cell-based, mouse; settings: for FOLD AKT ACTIVATION (OVER CONTROL): cells treated 30 minutes at 37° C
Procedure: (§1) The levels of Glut-4, activated AMPK and activated Akt were measured in mouse muscle cells C2C12 (from ATTC) and in primary culture of human skeletal muscle cells (Clonetics, Inc.) using Western immunoblotting. C2C12 cells were plated at 1.5×1-exp5 cells per mL/well (12-well plate) in standard cell culture medium (DMEM supplemented with 10% fetal bovine serum (FBS), 25 mM glucose, 20 mM Hepes, 4 mM glutamine and 2 mM sodium pyruvate. 48 hrs after the plating, medium was changed to differentiation medium (DMEM supplemented with 5 mM of glucose and 0.5% of FBS) for next 3-4 days to stimulate the formation of myotubes. Three hours before the treatment with selected agents, cells were washed with PBS and transferred to PBS supplemented with 5 mM of glucose.
(§2) Human skeletal muscle cells (HSKM) were cultured in SKBM-2 mediums provided by Clonetics. 48 hrs after cell plating, medium was changed to SKBM medium to stimulate differentiation of the cells to myotubes. When differentiated, the myotubes were transferred to PBS supplemented with 5 mM glucose for three hrs before the treatment.
(§3) Analysis of C2C12 cells for the level of activated AMPK, Akt and the level of GLUT-4 was performed in the same experimental system. The cells were treated for 30 minutes at 37° C. […] Subsequently, 20 μg per sample of sample protein was used for Western analysis using NuPage 10% Bis/Tris gels (Invitrogen). After exposure of membranes to primary and secondary antibodies AMPK, AKT or Glut-4 was detected using ECL-Plus (Amersham) following producer's instruction. Chemilumiscent signals were detected by using ChemiDoc system from Biorad. Intensity of detected signals were analyzed and measured using Quantity One software (Biorad). Alternatively, the level of phosphorylated AMPK was detected using ECL kit from Amersham and short exposure to Kodak films.
(§4) Experimental setup: Cell Culture was followed by treatment with selected contemplated compounds, which was followed by cell lysis and western blot analysis for AMPK, Akt, GLUT4, total AMPK, and total Akt. Signals were acquired accordingly.

[1] = test system: rat epitrochlearis muscle; assay: Glucose uptake in rat epitrochlearis muscle; assay type: cell-based; parameters: unit not given here; settings: 60 minute incubation at 37 C, 10 minute transport at 30 C; for Glucose uptake, Raw: single values, listed as K
Procedure: Glucose uptake in rat epitrochlearis muscle was determined following a protocol substantially as described by Brozinick, J. T., and Birnbaum, M. J. (1998) J. Biol. Chem. 273(24), […]. Results are listed in Tables 5 and 6, wherein data of Table 5 were obtained for 60 minute incubations (at 37 C), 10 minute transport at (30 C) and data of Table 6 were obtained for 60 minute incubations (at 37 C), 10 minute transport at (30 C) of the compounds as indicated (K is kinetin, AG is N2-acetylguanine).

GLUT-4 = assay: Western immunoblot for GLUT-4 protein level in C2C12 cells; assay type: cell-based, mouse
Procedure: as §1
Analysis of C2C12 cells for the level of activated AMPK, Akt and the level of GLUT-4 was performed in the same experimental system. The cells were treated for 30 minutes at 37° C. After the treatment, the cells were washed with ice-cold PBS and lysed with 80 μl of lysis buffer/well (M-PER buffer from Pierce supplemented with protease and phosphatase inhibitor mix (Calbiochem) for 10 minutes on ice. Next, the plates were transferred to −20° C. to improve the lysis of the cells. Next cells were sonicated for 5 minutes and lysate was transferred to Eppendorf tubes and centrifuged at 14,000 rpm for 10 minutes. Supernatants were collected in fresh Eppendorf tubes and kept on ice to measure the amount of total proteins. 3 μl of each lysate was used to measure the protein concentration using standard Bradford method (Biorad). Subsequently, 20 μg per sample of sample protein was used for Western analysis using NuPage 10% Bis/Tris gels (Invitrogen). After exposure of membranes to primary and secondary antibodies AMPK, AKT or Glut-4 was detected using ECL-Plus (Amersham) following producer's instruction. Chemilumiscent signals were detected by using ChemiDoc system from Biorad. Intensity of detected signals were analyzed and measured using Quantity One software (Biorad). Alternatively, the level of phosphorylated AMPK was detected using ECL kit from Amersham and short exposure to Kodak films.
Experimental setup: Cell Culture was followed by treatment with selected contemplated compounds, which was followed by cell lysis and western blot analysis for AMPK, Akt, GLUT4, total AMPK, and total Akt. Signals were acquired accordingly. Primary antibodies used in these studies are the following: Anti-phospho-AMPK (Thr172), mouse, rabbit IgG, from Cell Signaling, #2531; Anti-phospho-Akt (Ser473), mouse, rabbit IgG, Cell Signaling, #9271; Anti-Glut-4, mouse, rabbit IgG, Calbiochem, #400064; Anti-AMPK (total), mouse, rabbit IgG, Cell Signaling, #2532; Anti-Akt (total), mouse, rabbit IgG, Cell Signaling, #9272.
The effects of kinetin, N^2-Acetyl-Guanosine and N^2-Acetyl-Guanine on GLUT-4 protein level in C2C12 cells were investigated following the same experimental design as described for AMPK and AKT. Anti-Glut-4 antibody used in this study was from Calbiochem. […] Table 3 refers to multiple independent experiments where multiple identical concentrations for the same reagents are indicated.

muscle cells = assay: Total glucose uptake in vitro with fluorescent glucose analog; assay type: cell-based; settings: for AVERAGE (N = 3) fluorescence of fluorescent glucose in the cells / FOLD CHANGE IN TOTAL GLUCOSE UPTAKE (OVER CONTROL): 30 minutes at 37 C
Procedure: Total glucose uptake was measured using fluorescent glucose analog from Molecular Probes. Briefly, muscle cells were treated with kinetin, N^2-Acetyl-Guanosine and N^2-Acetyl-Guanine for 30 minutes at 37 C first and subsequently, these cells were exposed to 500 μM of fluorescent glucose analog for 5 minutes at room temperature. Next, cells were washed twice with cold Krebs-Hepes buffered solution and fixed in 70% ethanol in water. Fluorescence of fluorescent glucose in the cells was measured using fluorescent plate reader at 480/530 nm (excitation/emission). […] Table 4 refers to multiple independent experiments where multiple identical concentrations for the same reagents are indicated.

activated AMPK = assay: Western immunoblot for activated (phospho-Thr172) AMPK in muscle cells; assay type: cell-based, mouse; settings: for FOLD AMPK ACTIVATION (OVER CONTROL): cells treated 30 minutes at 37° C
Procedure: as §1, §2, §3, §4

[2] = concentration 0.15 (unit not given)
[3] = concentration 0.3 (unit not given)
[4] = concentration 0.75 (unit not given)
[5] = concentration 1.5 (unit not given)
[6] = concentration 3.75 (unit not given)
[7] = concentration 7.5 (unit not given)

c1coc(CNc2ncnc3[nH]cnc23)c1 [Kinetin, kinetin]
FOLD AKT ACTIVATION (OVER CONTROL) (activated Akt; 0.3 microM): 5.08 fold | FOLD AKT ACTIVATION (OVER CONTROL) (activated Akt; 0.8 microM): 3.17 fold | FOLD AKT ACTIVATION (OVER CONTROL) (activated Akt; 0.9 microM): 3.81 fold | FOLD AKT ACTIVATION (OVER CONTROL) (activated Akt; 2.0 microM): 3.35 fold | FOLD AKT ACTIVATION (OVER CONTROL) (activated Akt; 2.7 microM): 3.21 fold | FOLD AKT ACTIVATION (OVER CONTROL) (activated Akt; 5.0 microM): 2.07 fold | FOLD AKT ACTIVATION (OVER CONTROL) (activated Akt; 8.1 microM): 0.24 fold | Glucose uptake, Mean ([1]; 0.5 uM): 0.99 | Glucose uptake, Mean ([1]; 1 uM (Table 6)): 1.23 | Glucose uptake, Raw ([1]; 1 uM (Table 6)): 1.54 and 0.95 and 1.33 and 1.10 and 1.23 | Glucose uptake, Mean ([1]; 2 uM): 0.70 | Glucose uptake, Raw ([1]; 2 uM): 0.57 and 0.90 and 0.64 and 0.81 | effect on GLUT-4 protein level (in words) (GLUT-4): potently increase GLUT-4 protein level | FOLD CHANGE IN GLUT-4 LEVEL (OVER CONTROL) (GLUT-4; 0.3 microM): 3.45 fold and 3.95 fold | FOLD CHANGE IN GLUT-4 LEVEL (OVER CONTROL) (GLUT-4; 0.8 microM): 3.46 fold and 2.36 fold | FOLD CHANGE IN GLUT-4 LEVEL (OVER CONTROL) (GLUT-4; 0.9 microM): 4.00 fold | FOLD CHANGE IN GLUT-4 LEVEL (OVER CONTROL) (GLUT-4; 2.0 microM): 1.88 fold | FOLD CHANGE IN GLUT-4 LEVEL (OVER CONTROL) (GLUT-4; 2.7 microM): 3.88 fold | FOLD CHANGE IN GLUT-4 LEVEL (OVER CONTROL) (GLUT-4; 8.1 microM): 1.11 fold | effect on glucose uptake in muscle cells in vitro (in words) (muscle cells): potently enhance glucose uptake in muscle cells in vitro | AVERAGE (N = 3) fluorescence of fluorescent glucose in the cells (muscle cells; [2]): 88.6 +/− 0.9 | FOLD CHANGE IN TOTAL GLUCOSE UPTAKE (OVER CONTROL) (muscle cells; [2]): 1.88 fold | AVERAGE (N = 3) fluorescence of fluorescent glucose in the cells (muscle cells; [3]): 86.0 +/− 0.7 | FOLD CHANGE IN TOTAL GLUCOSE UPTAKE (OVER CONTROL) (muscle cells; [3]): 2.97 fold | AVERAGE (N = 3) fluorescence of fluorescent glucose in the cells (muscle cells; [4]): 103.3 +/− 2.1 | FOLD CHANGE IN TOTAL GLUCOSE UPTAKE (OVER CONTROL) (muscle cells; [4]): 2.19 fold | AVERAGE (N = 3) fluorescence of fluorescent glucose in the cells (muscle cells; [5]): 110.6 +/− 2.3 | FOLD CHANGE IN TOTAL GLUCOSE UPTAKE (OVER CONTROL) (muscle cells; [5]): 3.82 fold | AVERAGE (N = 3) fluorescence of fluorescent glucose in the cells (muscle cells; [6]): 102.6 +/− 4.7 | FOLD CHANGE IN TOTAL GLUCOSE UPTAKE (OVER CONTROL) (muscle cells; [6]): 2.18 fold | AVERAGE (N = 3) fluorescence of fluorescent glucose in the cells (muscle cells; [7]): 56.6 +/− 1.4 | FOLD CHANGE IN TOTAL GLUCOSE UPTAKE (OVER CONTROL) (muscle cells; [7]): 1.95 fold | FOLD AMPK ACTIVATION (OVER CONTROL) (activated AMPK; 0.1 microM): 5.30 fold | FOLD AMPK ACTIVATION (OVER CONTROL) (activated AMPK; 0.3 microM): 8.12 fold | FOLD AMPK ACTIVATION (OVER CONTROL) (activated AMPK; 0.8 microM): 3.60 fold and 2.40 fold | FOLD AMPK ACTIVATION (OVER CONTROL) (activated AMPK; 1.0 microM): 19.50 fold | FOLD AMPK ACTIVATION (OVER CONTROL) (activated AMPK; 2.0 microM): 2.70 fold | FOLD AMPK ACTIVATION (OVER CONTROL) (activated AMPK; 3.0 microM): 14.50 fold | FOLD AMPK ACTIVATION (OVER CONTROL) (activated AMPK; 10.0 microM): 12.80 fold

CC(=O)Nc1nc2nc[nH]c2c(=O)[nH]1 [N^2-Acetyl-Guanine, N2-acetylguanine]
FOLD AKT ACTIVATION (OVER CONTROL) (activated Akt; 0.3 microM): 3.50 fold and 2.44 fold | FOLD AKT ACTIVATION (OVER CONTROL) (activated Akt; 7.5 microM): 2.58 fold and 1.95 fold | effect on Akt activity (in words) (activated Akt; no concentration stated): potent activators of AMPK as well as Akt | Glucose uptake, Mean ([1]; 0.1 uM): 1.12 | Glucose uptake, Mean ([1]; 0.4 uM): 1.43 | effect on GLUT-4 protein level (in words) (GLUT-4): potently increase GLUT-4 protein level | FOLD CHANGE IN GLUT-4 LEVEL (OVER CONTROL) (GLUT-4; 0.3 microM): 3.94 fold | FOLD CHANGE IN GLUT-4 LEVEL (OVER CONTROL) (GLUT-4; 1.5 microM): 3.84 fold | FOLD CHANGE IN GLUT-4 LEVEL (OVER CONTROL) (GLUT-4; 7.5 microM): 3.24 fold | FOLD CHANGE IN GLUT-4 LEVEL (OVER CONTROL) (GLUT-4; 37.5 microM): 2.80 fold | effect on glucose uptake in muscle cells in vitro (in words) (muscle cells): potently enhance glucose uptake in muscle cells in vitro | AVERAGE (N = 3) fluorescence of fluorescent glucose in the cells (muscle cells; [2]): 86.4 +/− 2.3 | FOLD CHANGE IN TOTAL GLUCOSE UPTAKE (OVER CONTROL) (muscle cells; [2]): 1.85 fold | AVERAGE (N = 3) fluorescence of fluorescent glucose in the cells (muscle cells; [3]): 54.5 +/− 1.7 | FOLD CHANGE IN TOTAL GLUCOSE UPTAKE (OVER CONTROL) (muscle cells; [3]): 2.68 fold | AVERAGE (N = 3) fluorescence of fluorescent glucose in the cells (muscle cells; [5]): 55.2 +/− 0.8 | FOLD CHANGE IN TOTAL GLUCOSE UPTAKE (OVER CONTROL) (muscle cells; [5]): 2.71 fold | AVERAGE (N = 3) fluorescence of fluorescent glucose in the cells (muscle cells; [6]): 115.9 +/− 3.7 | FOLD CHANGE IN TOTAL GLUCOSE UPTAKE (OVER CONTROL) (muscle cells; [6]): 2.48 fold | AVERAGE (N = 3) fluorescence of fluorescent glucose in the cells (muscle cells; [7]): 59.6 +/− 0.4 | FOLD CHANGE IN TOTAL GLUCOSE UPTAKE (OVER CONTROL) (muscle cells; [7]): 2.93 fold | FOLD AMPK ACTIVATION (OVER CONTROL) (activated AMPK; 0.3 microM): 5.42 fold | FOLD AMPK ACTIVATION (OVER CONTROL) (activated AMPK; 1.5 microM): 5.85 fold | FOLD AMPK ACTIVATION (OVER CONTROL) (activated AMPK; 7.5 microM): 6.00 fold | FOLD AMPK ACTIVATION (OVER CONTROL) (activated AMPK; 37.5 microM): 6.51 fold | effect on AMPK activity (in words) (activated AMPK; no concentration stated): potent activators of AMPK
